Where a SMILES comes first, the peptide text is derived from it. [ ]: non-standard residue; d: D form. αMeF = C[C@](N)(Cc1ccccc1)C(=O)O; Aib = CC(C)(N)C(=O)O
Experiments:
[1] = biological target: T1, hGLP-1R (Homo sapiens, UniProt P43220); assay: cAMP functional assay, cells expressing human GLP-1 receptor (primary assay); assay type: cell-based; settings: n = 2
T1 construct: expressed in transfected cells
Description: (§1) The biological activities/receptor potencies of the synthetic GLP-1 peptides described herein are suitably tested for biological activity, e.g., stimulation of one or more cellular receptor responses. Stable cell lines expressing human, mouse, rat, or dog GLP-1 receptor (GLP-1R), glucagon receptor (GCGR) or glucose-dependent insulinotropic peptide (gastric inhibitory polypeptide) receptor (GIPR) are generated in HEK293 cells or CHO cells by standard methods.
(§2) cAMP assays were performed using “assay buffer”: Assay Buffer: 0.1% BSA (Sigma #A3059) in HBSS (Sigma #H8264) with 25 mM HEPES, pH 7.4 and containing 0.5 mM IBMX (Sigma #17018).
(§3) Low protein binding 384-well plates (Greiner #781280) are used to perform eleven 1 in 5 serial dilutions of test samples which are made in assay buffer. All sample dilutions are made in duplicate.
(§4) A frozen cryo-vial of cells expressing the receptor of interest is thawed rapidly in a water-bath, transferred to pre-warmed assay buffer and spun at 240× g for 5 minutes. Cells are re-suspended in assay buffer at a batch-dependent optimized concentration (e.g. hGCGR cells at 2×10^5 cells/ml, hGLP-1R and hGIPR cells at 1×10^5 cells /ml).
(§5) From the dilution plate, a 5 μL replica is stamped onto a black shallow-well u-bottom 384-well plate (Corning #3676). To this, 5 μL cell suspension is added and the plates incubated at room temperature for 30 minutes.
(§6) cAMP levels are measured using a commercially available cAMP dynamic 2 HTRF kit (Cisbio, Cat #62AM4PEJ), following the two step protocol as per manufacturer's recommendations. In brief; anti-cAMP cryptate (donor fluorophore) and cAMP-d2 (acceptor fluorophore) are made up separately by diluting each 1/20 in conjugate & lysis buffer provided in the kit. 5 μL anti-cAMP cryptate is added to all wells of the assay plate, and 5 μL cAMP-d2 is added to all wells except non-specific binding (NSB) wells, to which conjugate and lysis buffer are added. Plates are incubated at room temperature for one hour and then read on an Envision (Perkin Elmer) using excitation wavelength of 320 nm and emission wavelengths of 620 nm & 665 nm. EC50 values of the synthetic peptides determined in cAMP assays are then determined.

[2] = biological target: T2, hGIP-R (Homo sapiens, UniProt P48546); assay: cAMP functional assay, cells expressing human GIP receptor (primary assay); assay type: cell-based; settings: n = 2
T2 construct: expressed in transfected cells
T2 sequence (P48546 22-466): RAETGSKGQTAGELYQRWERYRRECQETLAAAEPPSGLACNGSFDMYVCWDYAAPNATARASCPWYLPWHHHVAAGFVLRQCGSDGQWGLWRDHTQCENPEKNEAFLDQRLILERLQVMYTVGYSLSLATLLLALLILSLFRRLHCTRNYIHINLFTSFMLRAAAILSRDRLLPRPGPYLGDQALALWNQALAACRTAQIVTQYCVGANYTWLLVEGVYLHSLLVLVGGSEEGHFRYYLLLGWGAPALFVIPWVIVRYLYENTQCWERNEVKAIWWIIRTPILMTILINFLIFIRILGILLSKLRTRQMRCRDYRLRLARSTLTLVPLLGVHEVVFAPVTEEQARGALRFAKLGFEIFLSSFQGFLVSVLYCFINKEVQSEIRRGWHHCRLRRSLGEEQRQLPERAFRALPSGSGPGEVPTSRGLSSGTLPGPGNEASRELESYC
Description: as §1, §2, §3, §4, §5, §6

T1 sequence (P43220 24-463): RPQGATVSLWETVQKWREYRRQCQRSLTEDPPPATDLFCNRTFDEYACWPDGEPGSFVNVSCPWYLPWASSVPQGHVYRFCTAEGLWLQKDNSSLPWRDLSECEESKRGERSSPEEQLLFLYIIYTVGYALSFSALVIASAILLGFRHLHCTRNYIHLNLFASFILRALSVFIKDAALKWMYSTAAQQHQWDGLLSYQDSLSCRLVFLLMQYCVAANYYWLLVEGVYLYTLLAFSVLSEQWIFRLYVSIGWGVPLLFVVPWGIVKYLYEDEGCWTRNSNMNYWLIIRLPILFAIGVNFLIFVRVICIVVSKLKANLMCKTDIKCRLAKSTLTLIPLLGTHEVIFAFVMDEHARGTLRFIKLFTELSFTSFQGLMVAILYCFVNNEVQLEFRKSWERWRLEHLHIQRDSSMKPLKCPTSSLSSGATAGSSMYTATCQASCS

SMILES	EC50 [1] [nM]	EC50 [2] [nM]
CC[C@H](C)[C@H](NC(=O)[C@](C)(Cc1ccccc1)NC(=O)[C@H](CCC(=O)O)NC(=O)[C@H](CCCCN)NC(=O)[C@H](C)NC(=O)[C@H](C)NC(=O)[C@H](CCC(N)=O)NC(=O)CNC(=O)[C@H](CCC(=O)O)NC(=O)[C@H](CC(C)C)NC(=O)[C@](C)(Cc1ccccc1)NC(=O)[C@H](CO)NC(=O)[C@H](CO)NC(=O)[C@@H](NC(=O)[C@H](CC(=O)O)NC(=O)[C@H](CO)NC(=O)[C@@H](NC(=O)[C@](C)(Cc1ccccc1)NC(=O)[C@@H](NC(=O)CNC(=O)[C@H](CCC(=O)O)NC(=O)C(C)(C)NC(=O)[C@@H](N)Cc1c[nH]cn1)[C@@H](C)O)[C@@H](C)O)C(C)C)C(=O)N[C@@H](C)C(=O)N[C@@](C)(Cc1ccccc1)C(=O)N[C@@H](CC(C)C)C(=O)N[C@H](C(=O)N[C@@H](CCCCN)C(=O)NCC(=O)N[C@@H](CCCNC(=N)N)C(N)=O)C(C)C [SEQ ID NO: 19, H-(Aib)^2-EGT^5-(α-MeF)^6-TSDV^10 SS-(α-MeF)^13-LE^15 GQAAK^20 E-(α-MeF)^22-IA-(α-MeF)^25 LVKGR^30] (H-H[Aib]EGT[αMeF]TSDVSS[αMeF]LEGQAAKE[αMeF]IA[αMeF]LVKGR-NH2)	0.026	102
CC[C@H](C)[C@H](NC(=O)[C@H](Cc1ccccc1)NC(=O)[C@H](CCC(=O)O)NC(=O)[C@H](CCCCN)NC(=O)[C@H](C)NC(=O)[C@H](C)NC(=O)[C@H](CCC(N)=O)NC(=O)CNC(=O)[C@H](CCC(=O)O)NC(=O)[C@H](CC(C)C)NC(=O)[C@H](Cc1ccc(O)cc1)NC(=O)[C@H](CO)NC(=O)[C@H](CO)NC(=O)[C@@H](NC(=O)[C@H](CC(=O)O)NC(=O)[C@H](CO)NC(=O)[C@@H](NC(=O)[C@H](Cc1ccccc1)NC(=O)[C@H](CO)NC(=O)CNC(=O)[C@H](CCC(=O)O)NC(=O)C(C)(C)NC(=O)[C@@H](N)Cc1c[nH]cn1)[C@@H](C)O)C(C)C)C(=O)N[C@@H](C)C(=O)N[C@@H](Cc1c[nH]c2ccccc12)C(=O)N[C@@H](CC(C)C)C(=O)N[C@H](C(=O)N[C@@H](CCCCN)C(=O)NCC(=O)N[C@@H](CCCNC(=N)N)C(N)=O)C(C)C [SEQ ID NO: 28, H-(Aib)^2-EG-(S)^5-FTSDV^10 SSYLE^15 GQAAK^20 EFIAW^25 LVKGR^30]	0.00951	102
CC[C@H](C)[C@H](NC(=O)[C@](C)(Cc1ccccc1)NC(=O)[C@H](CCC(=O)O)NC(=O)[C@H](CCCCN)NC(=O)[C@H](C)NC(=O)[C@H](C)NC(=O)[C@H](CCC(N)=O)NC(=O)CNC(=O)[C@H](CCC(=O)O)NC(=O)[C@H](CC(C)C)NC(=O)[C@](C)(Cc1ccccc1)NC(=O)[C@H](CO)NC(=O)[C@H](CO)NC(=O)[C@@H](NC(=O)[C@H](CC(=O)O)NC(=O)[C@H](CO)NC(=O)[C@@H](NC(=O)[C@](C)(Cc1ccccc1)NC(=O)[C@@H](NC(=O)CNC(=O)[C@H](CCC(=O)O)NC(=O)C(C)(C)NC(=O)[C@@H](N)Cc1c[nH]cn1)[C@@H](C)O)[C@@H](C)O)C(C)C)C(=O)N[C@@H](C)C(=O)N[C@@H](Cc1c[nH]c2ccccc12)C(=O)N[C@@H](CC(C)C)C(=O)N[C@H](C(=O)N[C@@H](CCCCN)C(=O)NCC(=O)N[C@@H](CCCNC(=N)N)C(N)=O)C(C)C [SEQ ID NO: 29, H-(Aib)^2-EGT^5-(α-MeF)^6-TSDV^10 SS-(α-MeF)^13-LE^15 GQAAK^20 E-(α-MeF)^22-IAW^25 LVKGR^30] (H-H[Aib]EGT[αMeF]TSDVSS[αMeF]LEGQAAKE[αMeF]IAWLVKGR-NH2)	0.0126	102
CC[C@H](C)[C@H](NC(=O)[C@H](Cc1ccccc1)NC(=O)[C@H](CCC(=O)O)NC(=O)[C@H](CCCCN)NC(=O)[C@H](C)NC(=O)[C@H](C)NC(=O)[C@H](CCC(N)=O)NC(=O)CNC(=O)[C@H](CCC(=O)O)NC(=O)[C@H](CC(C)C)NC(=O)[C@](C)(Cc1ccccc1)NC(=O)[C@H](CO)NC(=O)[C@H](CO)NC(=O)[C@@H](NC(=O)[C@H](CC(=O)O)NC(=O)[C@H](CO)NC(=O)[C@@H](NC(=O)[C@](C)(Cc1ccccc1)NC(=O)[C@@H](NC(=O)CNC(=O)[C@H](CCC(=O)O)NC(=O)C(C)(C)NC(=O)[C@@H](N)Cc1c[nH]cn1)[C@@H](C)O)[C@@H](C)O)C(C)C)C(=O)N[C@@H](C)C(=O)N[C@@](C)(Cc1ccccc1)C(=O)N[C@@H](CC(C)C)C(=O)N[C@H](C(=O)N[C@@H](CCCCN)C(=O)NCC(=O)N[C@@H](CCCNC(=N)N)C(N)=O)C(C)C [SEQ ID NO: 30, H-(Aib)^2-EGT^5-(α-MeF)^6-TSDV^10 SS-(α-MeF)^13-LE^15 GQAAK^20 EF^22-IA-(α-MeF)^25 LVKGR^30] (H-H[Aib]EGT[αMeF]TSDVSS[αMeF]LEGQAAKEFIA[αMeF]LVKGR-NH2)	0.0117	98.9
CC[C@H](C)[C@H](NC(=O)[C@](C)(Cc1ccccc1)NC(=O)[C@H](CCC(=O)O)NC(=O)[C@H](CCCCN)NC(=O)[C@H](C)NC(=O)[C@H](C)NC(=O)[C@H](CCC(N)=O)NC(=O)CNC(=O)[C@H](CCC(=O)O)NC(=O)[C@H](CC(C)C)NC(=O)[C@H](Cc1ccc(O)cc1)NC(=O)[C@H](CO)NC(=O)[C@H](CO)NC(=O)[C@@H](NC(=O)[C@H](CC(=O)O)NC(=O)[C@H](CO)NC(=O)[C@@H](NC(=O)[C@](C)(Cc1ccccc1)NC(=O)[C@@H](NC(=O)CNC(=O)[C@H](CCC(=O)O)NC(=O)C(C)(C)NC(=O)[C@@H](N)Cc1c[nH]cn1)[C@@H](C)O)[C@@H](C)O)C(C)C)C(=O)N[C@@H](C)C(=O)N[C@@](C)(Cc1ccccc1)C(=O)N[C@@H](CC(C)C)C(=O)N[C@H](C(=O)N[C@@H](CCCCN)C(=O)NCC(=O)N[C@@H](CCCNC(=N)N)C(N)=O)C(C)C [SEQ ID NO: 31, H-(Aib)^2-EGT^5-(α-MeF)^6-TSDV^10 SSYLE^15 GQAAK^20 E-(α-MeF)^22-IA-(α-MeF)^25 LVKGR^30]	0.0155	102
CC[C@H](C)[C@H](NC(=O)[C@](C)(Cc1ccccc1)NC(=O)[C@H](CCC(=O)O)NC(=O)[C@H](CCCCN)NC(=O)[C@H](C)NC(=O)[C@H](C)NC(=O)[C@H](CCC(N)=O)NC(=O)CNC(=O)[C@H](CCC(=O)O)NC(=O)[C@H](CC(C)C)NC(=O)[C@](C)(Cc1ccccc1)NC(=O)[C@H](CO)NC(=O)[C@H](CO)NC(=O)[C@@H](NC(=O)[C@H](CC(=O)O)NC(=O)[C@H](CO)NC(=O)[C@@H](NC(=O)[C@H](Cc1ccccc1)NC(=O)[C@@H](NC(=O)CNC(=O)[C@H](CCC(=O)O)NC(=O)C(C)(C)NC(=O)[C@@H](N)Cc1c[nH]cn1)[C@@H](C)O)[C@@H](C)O)C(C)C)C(=O)N[C@@H](C)C(=O)N[C@@](C)(Cc1ccccc1)C(=O)N[C@@H](CC(C)C)C(=O)N[C@H](C(=O)N[C@@H](CCCCN)C(=O)NCC(=O)N[C@@H](CCCNC(=N)N)C(N)=O)C(C)C [SEQ ID NO: 32, H-(Aib)^2-EGT^5-FTSDV^10 SS-(α-MeF)^13-LE^15 GQAAK^20 E-(α-MeF)^22-IA-(α-MeF)^25 LVKGR^30] (H-H[Aib]EGTFTSDVSS[αMeF]LEGQAAKE[αMeF]IA[αMeF]LVKGR-NH2)	0.102	102
CC[C@H](C)[C@H](NC(=O)[C@H](Cc1ccccc1)NC(=O)[C@H](CCC(=O)O)NC(=O)[C@H](CCCCN)NC(=O)[C@H](C)NC(=O)[C@H](C)NC(=O)[C@H](CCC(N)=O)NC(=O)CNC(=O)[C@H](CCC(=O)O)NC(=O)[C@H](CC(C)C)NC(=O)[C@H](Cc1ccccc1)NC(=O)[C@H](CO)NC(=O)[C@H](CO)NC(=O)[C@@H](NC(=O)[C@H](CC(=O)O)NC(=O)[C@H](CO)NC(=O)[C@@H](NC(=O)[C@H](Cc1ccccc1)NC(=O)[C@H](CO)NC(=O)CNC(=O)[C@H](CCC(=O)O)NC(=O)C(C)(C)NC(=O)[C@@H](N)Cc1c[nH]cn1)[C@@H](C)O)C(C)C)C(=O)N[C@@H](C)C(=O)N[C@@H](Cc1ccccc1)C(=O)N[C@@H](CC(C)C)C(=O)N[C@H](C(=O)N[C@@H](CCCCN)C(=O)NCC(=O)N[C@@H](CCCNC(=N)N)C(N)=O)C(C)C [SEQ ID NO: 33, H-(Aib)^2-EG-(S)^5-FTSDV^10 SS-(F)^13-LE^15 GQAAK^20 EFIA-(F)^25 LVKGR^30] (H-H[Aib]EGSFTSDVSSFLEGQAAKEFIAFLVKGR-NH2)	0.0183	102

Source: patent publication US20160318987A1 (MEDIMMUNE LIMITED, priority 2013, published 2016)
